Measurements taken from patent US20210003556A1, “IMPROVING ANTI-PD-1 CANCER THERAPY” (Mayo Foundation for Medical Education and Research, priority 2018, published 2021).

Tests used:
CX3CR1^+ CD8^+ T cells [1] = test: CTL function (CD107a expression, IFN-γ production) of CD8+ T cells with ABCB1 inhibitor with or without CP; format: cell-based, human; conditions: anti-CD3/CD28 beads 24 hours
Experimental: (§1) Stimulation and culture of human T cells: Human CD8^+ T cells were purified using a human CD8^+ T cell enrichment kit (Stemcell). CD8^+ T cells were incubated with chemotherapy drugs (paclitaxel, carboplatin, or doxorubicin), either alone or with T cell activators (DYNABEADS®, human T-activator CD3/CD28 beads) for 24-48 hours, followed with staining for CX3CR1 and Granzyme B. ABCB1 inhibitor PGP4008 was purchased from Enzo Life Sciences (Farmingdale, N.Y.).
Since the pharmacodynamics of doxorubicin may not be able to exactly reflect the efflux of carboplatin and paclitaxel (CP), and these drugs cannot be directly tracked due to lack of fluorescent capability, the impact of the drug transporter inhibitor on the function of T cells in the presence of CP was examined to determine whether T cell function might be dampened due to the reduced ability of T cells to efflux CP. ABCB1 transporter inhibitor (PGP4008) was incubated with resting or activated human primary CD8^+ T cells in vitro in the presence of CP. T cell function was measured by based pm degranulation (CD107a expression) and intracellular IFN-γ production.

CX3CR1^+ CD8^+ T cells [2] = format: cell-based, human
Experimental: FIG. 7 is a graph plotting CX3CR1^+ CD8^+ and CX3CR1^− CD8^+ T cell survival during treatment with doxorubicin (Dox) in vitro. […] N=4 donors.
as §1
To determine the effect of chemotherapeutic treatment on survival of CX3CR1^+ and CX3CR1^− CD8^+ T cells, subsets of these cells were isolated, placed in 96 well plates at 2×10^5 cells/well, and incubated with doxorubicin (Dox) at 0.5 μg/ml for 40 hours.

CX3CR1^+ CD8^+ T cells [3] = test: IL-15 treatment of human PBMC in vitro (proliferation/expansion of CX3CR1+ CD8+ T cells); format: cell-based
Experimental: FIG. 8A is a flow cytometry plot showing representative CD122 expression by CX3CR1^+ CD8^+ T cells. FIG. 8B is a graph plotting CD122 expression by CX3CR1^+ and CX3CR1^− CD8^+ T cells in PBMC after incubation with PHA-L for 48 hours. […] FIG. 8C is a graph plotting proliferation of CX3CR1^+ CD8^+ T cells treated in vitro with human IL-15 for 48 hours.
FIG. 9 is a graph plotting % CX3CR1^+ Granzyme CD8^+ T cells among human peripheral blood mononuclear cells (PBMC) cultured with graded concentrations of rh-IL-15 for 24 hours in vitro.
For at least a couple of reasons, IL-15 may improve anti-PD-1 therapy for non-responsive tumors. First, the transcription of CD122 (IL-2 receptor beta) was increased in CD11a^high CD8^+ T cells in responders 25 compared to non-responders (FIG. 1B). […] Further, human PBMC were incubated with human IL-15 (10 ng/ml) or anti-CD3/CD28 beads for 48 hours, and proliferation of CX3CR1^+ CD8^+ T cells was assessed based on % Ki67^+ cells.
To test whether IL-15 directly contributes to the expansion of CX3CR1^+ Granzyme B^+ CD8^+ T cells, human recombinant IL-15 was incubated for 24 hours with PBMC isolated from healthy human donors, followed by flow cytometry analysis of CX3CR1^+ Granzyme B^+ CD8^+ T cells. […] Thus, IL-15 may improve the efficacy of PD-1 ICI therapy by expanding CX3CR1^+ Granzyme B^+ CD8^+ T cells that are capable of rejecting tumors.

metastatic melanoma = test: Salvage chemotherapy added to anti-PD-1 in metastatic melanoma patients who failed PD-1 blockade; format: in vivo, human; conditions: BRAF wild-type metastatic melanoma; pembrolizumab alone, then carboplatin and paclitaxel added, assessed three weeks after the combination
Experimental: FIGS. 2A to 2C show patient responses to CIT with an increase of CX3CR1^+ Granzyme B^+ CD8^+ T cells. […] Given the disease progression while on pembrolizumab, paclitaxel, and carboplatin (white arrows) were initiated at 175 mg/m^2 and an AUC (area under curve) of 5 every 3 weeks for 2 cycles in combination with pembrolizumab. The patient received total of 12 cycles of pembrolizumab at the end of the follow up. FIG. 2B is a pair of flow cytometry plots showing CX3CR1 levels pre- and post-chemo, as indicated. Following the same schedule of treatment as in FIG. 2A, blood samples were collected for flow analysis of CX3CR1^+ Granzyme B^+ among CD11a^highCD8^+ T cells. […]
Patient information: The studies described herein were conducted according to Declaration of Helsinki principles. […] Response to treatment was evaluated according to standard clinical practice guidelines using Response Evaluation Criteria In Solid Tumors (RECIST) criteria. […]
The frequency of CX3CR1^+ Granzyme B^+ CD8^+ tumor-reactive T cells was examined before and after chemotherapy combined with anti-PD-1 therapy in patients with metastatic melanoma. […] The frequency of CX3CR1^+ Granzyme B^+ cells also was measured and compared in other responders and non-responders prior to and after chemotherapy. […]

Bim^+ CD8^+ T cells = test: % Bim+ CD8+ T cells in peripheral blood of metastatic melanoma patients after PD-1 ICI therapy; format: in vivo, human; conditions: 12 weeks after anti-PD-1 therapy; responders vs non-responders, first cohort
Source text: FIGS. 15A to 15D illustrate changes in Bim^+ CD8^+ T cells in response to PD-1 ICI therapy in patients with MM. FIG. 15A is a graph plotting percentages of changes in the frequency (%) of Bim^+ CD8^+ T cells in MM patients with progressive diseases (P, n=7) and responders (R, n=6) at 12-weeks after PD-1 therapy. **P<0.01, error bars, median with interquartile ranges. FIG. 15B is a series of images of metastatic melanoma (white arrows) in one patient with pseudo-progression at 12 weeks after PD-1 therapy. FIG. 15C is a graph plotting % Bim^+ CD8^+ T cells of the patient of FIG. 15B at baseline, 12 weeks, and 16 weeks after PD-1 therapy. FIG. 15D is a graph plotting the % change of Bim^+ CD8^+ T cells in a second cohort of melanoma patients (total 38) at 12 weeks after PD-1 therapy.
Further studies were conducted to examine and compare the frequency of Bim^+ cells among circulating CD11a^high CD8^+ T cells, since this population of T cells is enriched with tumor-reactive T cells (Liu et al., Oncoimmunology, 2013, 2:e23972). […] In addition, Bim levels (MFI) were positively correlated with PD-1 levels among CD11a^high CD8^+ T cells of cancer patients (FIG. 14B, P<0.01; Duraiswamy et al., J Immunol, 2011, 186:4200-4212). […] Therefore, measurement of the frequency of Bim^+ CD8^+ T cells can be used to the degree to which PD-1 signals have been blocked in cancer patients. […]

## O=C(Cc1ccccc1)Nc1c2c(nc3ccccc13)N(Cc1ccccc1)CC2 [PGP4008]
CX3CR1^+ CD8^+ T cells [1]; in the absence of CP
  function of CX3CR1+ CD8+ T cells (CD107a expression, IFN-γ production): not in the absence of CP
CX3CR1^+ CD8^+ T cells [1]; in the presence of CP (carboplatin and paclitaxel)
  function of CX3CR1+ CD8+ T cells (CD107a expression, IFN-γ production): significantly inhibited the function
CX3CR1^+ CD8^+ T cells [2]; cultured with Doxorubicin 0.5 μg/ml for 40 hours plus PGP4008
  apoptosis of CX3CR1+ CD8+ T cells after addition of ABCB1 inhibitor: increased apoptosis

## COc1cccc2c1C(=O)c1c(O)c3c(c(O)c1C2=O)C[C@@](O)(C(=O)CO)C[C@@H]3O[C@H]1C[C@H](N)[C@H](O)[C@H](C)O1 [doxorubicin]
CX3CR1^+ CD8^+ T cells [2]; human, 40 h, 0.5 μg/ml
  apoptosis (Annexin V) of CD8+ T cells: fewer CX3CR1^+ CD8^+ T cells (efflux cells) than CX3CR1^− CD8^+ T cells (non-efflux cells) underwent apoptosis
  percentage of Dox+/annexin V low (live) cells: higher in the CX3CR1^+ subset of CD8^+ T cells than in the CX3CR1^− CD8^+ subset

## human IL-15: human recombinant interleukin-15
CX3CR1^+ CD8^+ T cells [3]; graded concentrations of rh-IL-15, 24 hours, healthy human donors
  expansion of CX3CR1+ Granzyme B+ CD8+ T cells among PBMC: significantly increased the expansion
CX3CR1^+ CD8^+ T cells [3]; human PBMC, human IL-15 10 ng/ml, 48 hours
  proliferation of CX3CR1+ CD8+ T cells (% Ki67+ cells): increased proliferation

## pembrolizumab: anti-PD-1 antibody
Metastatic melanoma
  disease status (PET/CT) in one patient: rapid progression of metastatic melanoma in the peritoneum and liver
Bim^+ CD8^+ T cells
  % Bim+ CD8+ T cells: significantly decreased in responders compared to non-responders
